Measurements from US7148352B2, “Method of inhibiting neurotrophin-receptor binding” (Queen's University at Kingston, priority 1999, dated 2006).
Where “and” joins values, the source holds several entries; their conditions need not be identical. Equal entries are not always repeated.

Experiments:
[1] = target: T1, TrkA and p75^NTR (PC12 cells) (Mus musculus, UniProt P01139); test: 125I-NGF receptor binding to PC12 cells in the presence of competitor; set-up: species or system rat; conditions: compound 50 μM; 125I-NGF 1 nM; 2 h at 4° C.; average of three values
T1 construct: PC12 cells (rat pheochromocytoma cells expressing TrkA and p75^NTR; obtained from ATCC); host or cells: PC12 rat pheochromocytoma cells (intact, in suspension)
Procedure: (§1) The radio-iodination and receptor binding of NGF (Sutter et al., 1979) was performed with modifications (Ross et al., 1997) as follows: Evaluation of the ability of NCP compounds to inhibit TrkA and p75^NTR binding was determined by the binding of ^125I-NGF to PC12 cells (rat pheochromocytoma cells expressing TrkA and p75^NTR; obtained from ATCC) and PC12^nnr5 (rat pheochromocytoma cells expressing p75^NTR only; obtained from Dr. L. Greene, Columbia University, NY). The p75^NTR is in a low affinity state and a high affinity state, respectively, in these cell types (Ross et al., 1998). PC12 and PC12^nnr5 cells were grown in RPMI (Sigma) with 10% heat inactivated donor horse serum and 5% fetal calf serum. Cells were harvested by replacing the medium with calcium, magnesium-free balanced salt solution (Gey's solution) and incubating at 37° C. for 15 minutes. Cells were pelleted by centrifugation and suspended in HKR buffer (10 mM Hepes [pH 7.35] containing 125 mM NaCl, 4.8 mM KCl, 1.3 mM CaCl2, 1.2 mM MgSO4, 1.2 mM KH2PO4, 1 g/L glucose and 1 g/L BSA) at a cell concentration of 2×10^6/mL and kept at 4° C. Triplicate tubes were set up for total binding, non-specific binding and binding in the presence of candidate competitor molecule (i.e., a tube for each data point). Each tube contained ^125I-NGF (at 1 nM), 400,000 cells (for a final cell concentration of 10^6/mL) and NGF (50 nM, to define non-specific binding), as required. The tubes were incubated for 2 h at 4° C. and specific binding evaluated by measuring specifically bound DPM (Ross et al., 1997). Data were analysed and the results expressed as receptor binding observed in the presence of competitor (e.g. NCP compounds) as a percentage of receptor binding in the absence of a competitor.

[2] = system: T2, TrkA and p75^NTR (PC12 cells); test: as above; set-up: species or system rat; conditions: compound 50 μM; 125I-NGF 1 nM; 2 h at 4° C.; receptor binding as percentage of binding in absence of competitor
T2 construct: PC12 cells (rat pheochromocytoma cells expressing TrkA and p75^NTR; obtained from ATCC); host or cells: PC12 rat pheochromocytoma cells (intact, in suspension)
Procedure: as §1

[3] = system: p75^NTR (PC12^nnr5 cells, expressing p75^NTR only); test: 125I-NGF receptor binding to PC12^nnr5 cells in the presence of competitor; set-up: species or system rat; conditions: compound 50 μM, 125I-NGF 1 nM, 2 h at 4° C.; for nnr5 % of Max, Avg: average of three values; for nnr5 % of Max (individual determinations): receptor binding as percentage of binding in absence of competitor
Procedure: as §1

T1 sequence (P01139 122-241): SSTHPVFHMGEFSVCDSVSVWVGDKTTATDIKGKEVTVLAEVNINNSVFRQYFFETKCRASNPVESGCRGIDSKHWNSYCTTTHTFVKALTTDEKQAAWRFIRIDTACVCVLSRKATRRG
T2 sequence (P01139 122-241): as above

Which “PC12 % of Max, Avg” value [1] does the source give for `O=C(O)c1cccc(N2C(=O)c3ccc([N+](=O)[O-])cc3C2=O)c1` [Compound 146, 4-nitro-N-(m-carboxyphenyl)phthalimide] here?
The value was “= 58 % of Max”.

And the “PC12 % of Max (individual determinations)” value [2]?
The value was 52 % of Max (2×) and 71 % of Max.

What about the melting point of the same molecule?
The melting point was 306 to 308 °C.

And the “nnr5 % of Max, Avg” value [3]?
The value was “= 44 % of Max”.

What about the “nnr5 % of Max (individual determinations)” value [3] of the same molecule?
The value was 48 % of Max and 43 % of Max and 42 % of Max.

What does the source list for `O=C(O)c1ccc(N2C(=O)c3ccc([N+](=O)[O-])cc3C2=O)cc1` [Compound 145, 4-nitro-N-(p-carboxyphenyl)phthalimide]?
PC12 % of Max, Avg [1]: = 70 % of Max; PC12 % of Max (individual determinations) [2]: 60 % of Max and 77 % of Max and 73 % of Max; nnr5 % of Max, Avg [3]: = 78 % of Max; nnr5 % of Max (individual determinations) [3]: 76 % of Max and 86 % of Max and 71 % of Max

Which “PC12 % of Max, Avg” value [1] does the source give for `O=C(O)CCCCN1C(=O)c2ccc([N+](=O)[O-])cc2C1=O` [Compound 143, 4-nitro-N-(4-carboxybutyl)phthalimide] here?
The value was “= 78 % of Max”.

And the “PC12 % of Max (individual determinations)” value [2]?
The value was 65 % of Max and 97 % of Max and 72 % of Max.

And the “nnr5 % of Max, Avg” value [3]?
Its value is “= 75 % of Max”.

And the “nnr5 % of Max (individual determinations)” value [3]?
The value was 76 % of Max and 79 % of Max and 71 % of Max.

Which “PC12 % of Max, Avg” value [1] does the source give for `O=C(O)c1ccc(CN2C(=O)c3ccc(C(=O)O)cc3C2=O)cc1` [Compound 108, 4-carboxy-N-(p-carboxyphenylmethyl)phthalimide] here?
The value was “= 73 % of Max”.

What about the “PC12 % of Max (individual determinations)” value [2] of the same molecule?
The value was 90 % of Max and 55 % of Max and 75 % of Max.

And the “nnr5 % of Max, Avg” value [3]?
Its value is “= 93 % of Max”.

And the “nnr5 % of Max (individual determinations)” value [3]?
The value was 135 % of Max and 77 % of Max and 66 % of Max.

Which “PC12 % of Max, Avg” value [1] does the source give for `O=C(O)CN1C(=O)c2ccc(C(=O)O)cc2C1=O` [Compound 100, 4-carboxy-N-(1-carboxymethyl)phthalimide] here?
Its value is “= 116 % of Max”.

What about the “PC12 % of Max (individual determinations)” value [2] of the same molecule?
Its value is 102 % of Max and 108 % of Max and 137 % of Max.

What about the “nnr5 % of Max, Avg” value [3] of the same molecule?
The value was “= 100 % of Max”.

And the “nnr5 % of Max (individual determinations)” value [3]?
The value was 108 % of Max and 111 % of Max and 80 % of Max.

With `O=C(O)c1ccc(N2C(=O)c3cccc4cc([N+](=O)[O-])cc(c34)C2=O)cc1` [Compound 205, 3-nitro-N-(p-carboxyphenyl)-1,8-naphthalimide] as the molecule, how does the “PC12 % of Max, Avg” value [1] read?
Its value is “= 17 % of Max”.

And the “PC12 % of Max (individual determinations)” value [2]?
Its value is 16 % of Max and 19 % of Max and 15 % of Max.

What about the “nnr5 % of Max, Avg” value [3] of the same molecule?
The value was “= 9 % of Max”.

And the “nnr5 % of Max (individual determinations)” value [3]?
The value was 0 % of Max and 11 % of Max and 15 % of Max.

What does the source list for `O=C(O)c1ccc(N2C(=O)c3cccc4c([N+](=O)[O-])ccc(c34)C2=O)cc1` [Compound 225, 4-nitro-N-(p-carboxyphenyl)-1,8-naphthalimide]?
PC12 % of Max, Avg [1]: = 66 % of Max; PC12 % of Max (individual determinations) [2]: 69 % of Max and 60 % of Max and 68 % of Max; nnr5 % of Max, Avg [3]: = 56 % of Max; nnr5 % of Max (individual determinations) [3]: 49 % of Max and 50 % of Max and 68 % of Max

Which “PC12 % of Max, Avg” value [1] does the source give for `O=C(O)CCCN1C(=O)c2ccc(C(=O)O)cc2C1=O` [Compound 102, 4-carboxy-N-(3-carboxypropyl)phthalimide] here?
The value was “= 91 % of Max”.

And the “PC12 % of Max (individual determinations)” value [2]?
Its value is 79 % of Max and 80 % of Max and 113 % of Max.

And the “nnr5 % of Max, Avg” value [3]?
Its value is “= 55 % of Max”.

And the “nnr5 % of Max (individual determinations)” value [3]?
Its value is 55 % of Max and 50 % of Max and 61 % of Max.

What does the source list for `O=C(O)c1cccc(N2C(=O)c3ccc(C(=O)O)cc3C2=O)c1` [Compound 106, 4-carboxy-N-(m-carboxyphenyl)phthalimide]?
PC12 % of Max, Avg [1]: = 44 % of Max; PC12 % of Max (individual determinations) [2]: 40 % of Max (2×) and 52 % of Max; nnr5 % of Max, Avg [3]: = 26 % of Max; nnr5 % of Max (individual determinations) [3]: 37 % of Max and 16 % of Max and 24 % of Max

What does the source list for `O=C(O)c1ccc(N2C(=O)c3ccc(C(=O)O)cc3C2=O)cc1` [Compound 105, 4-carboxy-N-(p-carboxyphenyl)phthalimide]?
PC12 % of Max, Avg [1]: = 36 % of Max; PC12 % of Max (individual determinations) [2]: 29 % of Max and 38 % of Max and 40 % of Max; nnr5 % of Max, Avg [3]: = 34 % of Max; nnr5 % of Max (individual determinations) [3]: 31 % of Max and 17 % of Max and 55 % of Max

What does the source list for `O=C(O)c1ccc2c(c1)C(=O)N(c1ccccc1C(=O)O)C2=O` [Compound 107, 4-carboxy-N-(o-carboxyphenyl)phthalimide]?
PC12 % of Max, Avg [1]: = 100 % of Max; PC12 % of Max (individual determinations) [2]: 111 % of Max and 86 % of Max and 103 % of Max; nnr5 % of Max, Avg [3]: = 85 % of Max; nnr5 % of Max (individual determinations) [3]: 58 % of Max and 113 % of Max and 83 % of Max

Which results are given for `O=C(O)c1ccccc1N1C(=O)c2cccc3cc([N+](=O)[O-])cc(c23)C1=O` [Compound 207, 3-nitro-N-(o-carboxyphenyl)-1,8-naphthalimide]?
PC12 % of Max, Avg [1]: = 54 % of Max; PC12 % of Max (individual determinations) [2]: 60 % of Max and 34 % of Max and 69 % of Max; nnr5 % of Max, Avg [3]: = 58 % of Max; nnr5 % of Max (individual determinations) [3]: 64 % of Max and 52 % of Max and 59 % of Max

Which “PC12 % of Max, Avg” value [1] does the source give for `Nc1ccc2c(c1)C(=O)N(c1cccc(C(=O)O)c1)C2=O` [Compound 166, 4-amino-N-(m-carboxyphenyl)phthalimide] here?
Its value is “= 57 % of Max”.

And the “PC12 % of Max (individual determinations)” value [2]?
Its value is 43 % of Max and 58 % of Max and 71 % of Max.

What about the “nnr5 % of Max, Avg” value [3] of the same molecule?
Its value is “= 58 % of Max”.

And the “nnr5 % of Max (individual determinations)” value [3]?
The value was 55 % of Max and 64 % of Max and 56 % of Max.

With `O=C(O)CCN1C(=O)c2cccc([N+](=O)[O-])c2C1=O` [Compound 121, 3-nitro-N-(2-carboxyethyl)phthalimide] as the molecule, how does the “PC12 % of Max, Avg” value [1] read?
The value was “= 103 % of Max”.

What about the “PC12 % of Max (individual determinations)” value [2] of the same molecule?
The value was 121 % of Max and 92 % of Max and 103 % of Max.

And the “nnr5 % of Max, Avg” value [3]?
The value was “= 165 % of Max”.

And the “nnr5 % of Max (individual determinations)” value [3]?
The value was 204 % of Max and 188 % of Max and 103 % of Max.

With `O=C(O)CCCCN1C(=O)c2ccc(C(=O)O)cc2C1=O` [Compound 103, 4-carboxy-N-(4-carboxybutyl)phthalimide] as the molecule, how does the “PC12 % of Max, Avg” value [1] read?
The value was “= 78 % of Max”.

And the “PC12 % of Max (individual determinations)” value [2]?
The value was 69 % of Max and 65 % of Max and 100 % of Max.

What about the “nnr5 % of Max, Avg” value [3] of the same molecule?
Its value is “= 47 % of Max”.

What about the “nnr5 % of Max (individual determinations)” value [3] of the same molecule?
Its value is 32 % of Max and 69 % of Max and 41 % of Max.

With `O=C(O)CCN1C(=O)c2ccc([N+](=O)[O-])cc2C1=O` [Compound 141, 4-nitro-N-(2-carboxyethyl)phthalimide] as the molecule, how does the “PC12 % of Max, Avg” value [1] read?
The value was “= 90 % of Max”.

And the “PC12 % of Max (individual determinations)” value [2]?
The value was 74 % of Max and 108 % of Max and 87 % of Max.

What about the “nnr5 % of Max, Avg” value [3] of the same molecule?
Its value is “= 96 % of Max”.

And the “nnr5 % of Max (individual determinations)” value [3]?
The value was 98 % of Max and 114 % of Max and 77 % of Max.

With `O=C(O)CCCCN1C(=O)c2cccc([N+](=O)[O-])c2C1=O` [Compound 123, 3-nitro-N-(4-carboxybutyl)phthalimide] as the molecule, how does the “PC12 % of Max, Avg” value [1] read?
The value was “= 97 % of Max”.

What about the “PC12 % of Max (individual determinations)” value [2] of the same molecule?
Its value is 118 % of Max and 75 % of Max and 98 % of Max.

What about the “nnr5 % of Max, Avg” value [3] of the same molecule?
The value was “= 150 % of Max”.

And the “nnr5 % of Max (individual determinations)” value [3]?
Its value is 172 % of Max and 161 % of Max and 117 % of Max.
